“Also recorded” adds a separate entry of the source.
Key:
[1] = biological target: T1, binding of human NME7 to synthetic MUC1* peptide (Homo sapiens, UniProt P15941); test: ELISA: inhibition of NME7 binding to immobilized MUC1* peptide; details: free peptides
T1 construct: made in house; host or cells: E. coli
T1 sequence (P15941 1110-1154 limits assumed): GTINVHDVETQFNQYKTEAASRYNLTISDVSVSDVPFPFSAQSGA
From the text: Those antibodies that inhibit cancer growth or transition to a more metastatic state are selected for use as anti-cancer therapeutics and may be administered to a patient for the treatment or prevention of cancers. Selected antibodies may be further optimized for example by engineering or making human chimera antibodies or fully human antibodies. […] We then generated antibodies using these peptides and then tested both the resultant antibodies as well as the immunizing peptides for their ability to: a) inhibit cancerous growth; and b) inhibit the induced transition from cancer cells to metastatic cancer cells. NME7 peptides were selected as immunizing agents for antibody production and as inhibitory agents themselves (FIG. 19 and Example 11). Peptides A1 (SEQ ID NO:141), A2 (SEQ ID NO:142), B1 (SEQ ID NO:143), B2 (SEQ ID NO:144) and B3 (SEQ ID NO:145), wherein A refers to the domain from which the peptide is derived, i.e. the NDPK A domain and the B denotes that the peptide is derived from the NDPK B domain (FIG. 15). Each peptide was used as an immunogen and injected into 2 rabbits each for production of polyclonal antibodies. The antibodies that were harvested from the blood of the immunized rabbits were purified over a column derivatized with the immunizing peptide. The purified antibodies were then tested for their ability to bind to human NME7. All of the resultant antibodies bound to human NME7 but not human NME1 as desired (FIG. 26A-B, Example 12). […] The antibodies were also tested for their ability to inhibit the binding of NME7 to a MUC1* extracellular domain peptide.
(§1) NME7 peptides were selected as immunizing agents for antibody production. NME7 peptides A1, A2, B1, B2 and B3 (FIG. 19) were chosen using a process of sequence alignment among human NME1, human NME7 and several bacterial NMEs that were homologous to human NME1 or human NME7. Five regions that had high sequence homology among all were identified. However, to prevent selecting peptides that would give rise to antibodies that would inhibit human NME1 as well as human NME7, we chose NME7 sequences that were adjacent to the homologous regions wherein those peptides had sequences that were different from human NME1. We did ELISA assays to see if the peptides on their own could bind to a synthetic MUC1* peptide on the surface and inhibit the binding of human NME7 or human NME1 to the immobilized peptide (FIG. 27).

[2] = biological target: T2, binding of human NME1 to synthetic MUC1* peptide (Homo sapiens, UniProt P15941); test: ELISA: inhibition of NME1 binding to immobilized MUC1* peptide; details: free peptides
T2 sequence (P15941 1110-1154 limits assumed): T1 sequence (P15941 1110-1154 limits assumed)
From the text: as §1

[3] = tested on: T47D breast cancer cells; test: Cancer cell growth inhibition by anti-NME7 specific antibodies and immunizing peptides (Example 13); assay type: cell-based, human; details: added separately; RPMI with serum
Protocol: Rabbits were immunized with NME7 peptides A1, A2, B1, B2, and B3 and antibodies were generated, collected and purified over a column to which the immunizing peptide had been conjugated. T47D breast cancer cells were plated and cultured according to ATCC protocols in RPMI media supplemented with serum. Immunizing peptides A1, A2, B1, B2, and B3, and the PSMGFR extracellular domain peptide of MUC1*, “FLR” here, were also added separately to growing T47D breast cancer cells. Taxol and the E6 anti-MUC1* Fab were added as controls. […] Note the comparison to inhibition using Taxol, which is a chemotherapy agent that kills healthy and cancer cells alike. Also, for comparison, a polyclonal antibody generated using a large stretch of NME7 from amino acid 100 to 376 is shown.
In a similar experiment, combinations of the antibodies generated from immunization with peptides A1, A2, B1, B2, and B3 as well as the peptides themselves were added to growing cancer cells at the concentrations indicated. […] In these two experiments, the cells were MUC1* positive breast cancer cells.

[4] = tested on: T47D breast cancer cells; test: Inhibition of NME7-AB or 2i induced transition of cancer cells to metastatic cancer cells (floaters, RT-PCR); assay type: cell-based, human; details: for expression of metastasis marker CXCR4 (RT-PCR) / floater cells (change from adherent cells to floaters): cells grown in NME7-AB or 2i; for floater cells (change from adherent cells to floaters): visual observation; for inhibition of transition to a more metastatic state (RT-PCR CXCR4, CHD1, SOX2): peptides alone, transition induced by 2i inhibitors
Protocol: In one example, NME7-AB specific antibodies, generated by immunization with NME7-derived peptides A1, A2, B1, B2 and B3, as well as the immunizing peptides themselves, were added into the media along with either NME7-AB or 2i to determine if they inhibited the transformation of regular cancer cells to metastatic cancer stem cells. Antibodies and peptides were separately added along with the agent that causes metastatic transformation; in this case NME7-AB or the 2i inhibitors PD0325901 and CHIR99021. NME7-AB and 2i were separately used to induce the cancer cells to be transformed to a more aggressive metastatic state. 2i was used so that it could not be argued that the antibodies that were added to the media simply sopped up all of the NME7-AB so that the causative agent effectively was not there (Example 14).
Visual observation was independently recorded by two scientists as the experiment progressed (FIG. 30). […] The amount of mRNA, which indicates cell viability and growth, was measured. […] RT-PCR was used to measure expression levels of metastatic markers, including CXCR4.
In another experiment, the free peptides A1, A2, B1, B2 and B3 were added to cancer cells in culture that were undergoing transition to a more metastatic state by culturing in either NME7-AB or 2i.
In the first of these experiments, the antibodies generated by immunization with A1, A2, B1, B2 and B3 were tested for their ability to inhibit the metastatic transition induced by culture of T47D breast cancer cells in NME7-AB or in 2i inhibitors.
RT-PCR was used to measure expression levels of metastatic markers, including CXCR4. […] (See FIG. 31). […] Peptide B3 was especially effective as was antibody #61 that it generated. […] The amount of mRNA, which indicates cell viability and growth, was measured.

[5] = tested on: Human stem cells (iPS cat #SC101a-1); test: Human stem cell growth and pluripotency in NME7-AB or NM23-H1 dimers; assay type: cell-based; details: 8 nM in Minimal Stem Cell Media
Protocol: For testing recombinant NME7-AB for ability to maintain pluripotency and inhibit differentiation, a soluble variant of NME7, NME7-AB, was generated and purified. Human stem cells (iPS cat #SC101a-1, System Biosciences) were grown per the manufacturer's directions in 4 ng/ml bFGF over a layer of mouse fibroblast feeder cells for four passages. These source stem cells were then plated into 6-well cell culture plates (Vita™, Thermo Fisher) that had been coated with 12.5 ug/well of a monoclonal anti-MUC1* antibody, MN-C3. Cells were plated at a density of 300,000 cells per well. The base media was Minimal Stem Cell Media consisting of: 400 ml DME/F12/GlutaMAX I (Invitrogen #10565-018), 100 ml Knockout Serum Replacement (KO-SR, Invitrogen #10828-028), 5 ml 100×MEM Non-essential Amino Acid Solution (Invitrogen #11140-050) and 0.9 ml (0.1 mM) β-mercaptoethanol (55 mM stock, Invitrogen #21985-023). The base media can be any media. In a preferred embodiment, the base media is free of other growth factors and cytokines. To the base media was added either 8 nM of NME7-AB or 8 nM NM23-H1 refolded and purified as stable dimers. Media was changed every 48 hours and due to accelerated growth, had to be harvested and passaged at Day 3 post-plating.
Cell counts at the first harvest verified that culture in NME7 produced 1.4-times more cells than culture in NM23-H1 dimers.

Substance: DAGFEISAMQMFNMDRVNVE (peptide B1)
- inhibition of binding of NME7 to immobilized MUC1* peptide [1]: inhibited the binding
- inhibition of binding of NME1 to immobilized MUC1* peptide [2]: inhibited the binding
- inhibition of cancer cell growth [3]: potently inhibited the growth
- expression of metastasis marker CXCR4 (RT-PCR) [4]: inhibited the increase in expression
- floater cells (change from adherent cells to floaters) [4]: inhibited the morphological change
- inhibition of transition to a more metastatic state (RT-PCR CXCR4, CHD1, SOX2) [4]: potently inhibit

Substance: AIFGKTKIQNAVHCTDLPEDGLLEVQYFF (peptide B3)
- inhibition of binding of NME7 to immobilized MUC1* peptide [1]: inhibited the binding
- inhibition of binding of NME1 to immobilized MUC1* peptide [2]: inhibited the binding
- inhibition of cancer cell growth [3]: potently inhibited the growth
- expression of metastasis marker CXCR4 (RT-PCR) [4]: inhibited the increase in expression
- floater cells (change from adherent cells to floaters) [4]: inhibited the morphological change
- inhibition of transition to a more metastatic state (RT-PCR CXCR4, CHD1, SOX2) [4]: potently inhibit; also recorded: most inhibitory

Substance: SGVARTDASES (peptide A2)
- inhibition of binding of NME7 to immobilized MUC1* peptide [1]: inhibited the binding
- inhibition of binding of NME1 to immobilized MUC1* peptide [2]: inhibited the binding
- inhibition of cancer cell growth [3]: potently inhibited the growth
- expression of metastasis marker CXCR4 (RT-PCR) [4]: inhibited the increase in expression
- floater cells (change from adherent cells to floaters) [4]: inhibited the morphological change
- inhibition of transition to a more metastatic state (RT-PCR CXCR4, CHD1, SOX2) [4]: potently inhibit

Substance: EVYKGVVTEYHDMVTE (peptide B2)
- inhibition of binding of NME7 to immobilized MUC1* peptide [1]: inhibited the binding
- inhibition of binding of NME1 to immobilized MUC1* peptide [2]: inhibited the binding
- inhibition of cancer cell growth [3]: potently inhibited the growth
- expression of metastasis marker CXCR4 (RT-PCR) [4]: inhibited the increase in expression
- floater cells (change from adherent cells to floaters) [4]: inhibited the morphological change
- inhibition of transition to a more metastatic state (RT-PCR CXCR4, CHD1, SOX2) [4]: potently inhibit

Substance: MLSRKEALDFHVDHQS (peptide A1)
- inhibition of binding of NME7 to immobilized MUC1* peptide [1]: inhibited the binding
- inhibition of binding of NME1 to immobilized MUC1* peptide [2]: inhibited the binding
- inhibition of cancer cell growth [3]: potently inhibited the growth
- expression of metastasis marker CXCR4 (RT-PCR) [4]: inhibited the increase in expression
- floater cells (change from adherent cells to floaters) [4]: inhibited the morphological change
- inhibition of transition to a more metastatic state (RT-PCR CXCR4, CHD1, SOX2) [4]: potently inhibit

Substance: NM23-H1 (NME1) dimers: NM23-H1 refolded and purified as stable dimers
- pluripotent stem cell growth / differentiation [5]: no differentiation even when 100% confluent
